Data: patent US8841312B2, “Fused pyridine, pyrimidine and triazine compounds as cell cycle inhibitors” (Amgen Inc., priority 2007, dated 2014)
pIC50: −log10 of the molar value.

Experiments:
Cdk4/CyclinD1 = Cdk4/CyclinD1 (Homo sapiens (Human), UniProt P11802); assay: Cdk4 kinase inhibition assay with recombinant Cdk4/CyclinD1, Rb substrate, [33P]-ATP filter plate; assay type: biochemical; details: 25 μM ATP, read-out: Cdk 4 IC50
Procedure, shortened: (§1)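 Recombinant Cdk4/CyclinD1 or Cdk6/CyclinD3 phosphorylated Rb protein with [33P]-ATP for 1 h at room temperature. Protein was TCA-precipitated on filter plates and bound radioactivity counted. IC50 by nonlinear regression.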

Cdk6/CyclinD3 = Cdk6/CyclinD3 (Homo sapiens (Human), UniProt Q00534); assay: Cdk6 kinase inhibition assay with recombinant Cdk6/CyclinD3, Rb substrate, [33P]-ATP filter plate; assay type: biochemical; details: 25 μM ATP, read-out: Cdk 6 IC50
Procedure, shortened: as §1

Sequence of Cdk6/CyclinD3 (Q00534 whole entry): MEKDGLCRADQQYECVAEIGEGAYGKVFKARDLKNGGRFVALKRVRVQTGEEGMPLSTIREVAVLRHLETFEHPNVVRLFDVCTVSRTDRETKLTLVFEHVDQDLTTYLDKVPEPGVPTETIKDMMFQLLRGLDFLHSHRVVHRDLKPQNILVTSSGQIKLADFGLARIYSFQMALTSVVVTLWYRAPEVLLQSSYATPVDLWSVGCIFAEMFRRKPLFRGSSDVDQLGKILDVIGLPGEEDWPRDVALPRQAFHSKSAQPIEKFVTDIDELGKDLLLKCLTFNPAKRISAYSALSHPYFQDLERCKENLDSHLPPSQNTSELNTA
Sequence of Cdk6/CyclinD3 (P30281 whole entry partner): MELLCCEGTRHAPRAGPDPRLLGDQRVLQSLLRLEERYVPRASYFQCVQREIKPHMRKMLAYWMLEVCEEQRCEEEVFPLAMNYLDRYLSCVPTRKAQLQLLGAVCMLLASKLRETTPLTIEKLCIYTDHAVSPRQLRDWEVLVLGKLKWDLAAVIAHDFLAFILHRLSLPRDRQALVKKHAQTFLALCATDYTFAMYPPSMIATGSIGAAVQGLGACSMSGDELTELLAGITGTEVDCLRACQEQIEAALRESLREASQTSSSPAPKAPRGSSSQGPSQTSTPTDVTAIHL
Sequence of Cdk4/CyclinD1 (P11802 whole entry): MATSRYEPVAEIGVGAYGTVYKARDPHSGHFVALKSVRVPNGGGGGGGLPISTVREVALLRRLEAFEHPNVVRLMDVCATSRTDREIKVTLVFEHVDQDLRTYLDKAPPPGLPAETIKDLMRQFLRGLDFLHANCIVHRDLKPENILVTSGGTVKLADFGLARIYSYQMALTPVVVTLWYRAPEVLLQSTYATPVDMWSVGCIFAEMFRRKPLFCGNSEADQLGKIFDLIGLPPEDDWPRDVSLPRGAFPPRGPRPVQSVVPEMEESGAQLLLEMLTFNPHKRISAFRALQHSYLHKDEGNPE
Sequence of Cdk4/CyclinD1 (P24385 whole entry partner): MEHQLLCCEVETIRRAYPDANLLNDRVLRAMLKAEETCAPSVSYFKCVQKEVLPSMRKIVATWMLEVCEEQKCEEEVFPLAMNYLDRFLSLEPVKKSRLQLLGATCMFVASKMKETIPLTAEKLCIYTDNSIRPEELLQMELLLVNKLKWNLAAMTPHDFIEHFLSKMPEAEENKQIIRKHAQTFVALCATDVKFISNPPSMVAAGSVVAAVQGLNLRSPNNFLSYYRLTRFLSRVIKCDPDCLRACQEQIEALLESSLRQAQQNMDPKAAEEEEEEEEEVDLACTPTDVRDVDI

Structure (SMILES) | pIC50 (Cdk4/CyclinD1) | pIC50 (Cdk6/CyclinD3)
OCCNC1CCN(c2ccc(Nc3ncc4c5ccncc5n(C5CCCC5)c4n3)nc2)CC1 [Example 458] | 8.32 | 8.29
c1cc(-c2ccc(Nc3ncc4c5ccncc5n(C5CCCC5)c4n3)nc2)ccn1 [Example 260, N-3,4′-bipyridin-6-yl-9-cyclopentyl-9H-pyrido[4′,3′:4,5]pyrrolo[2,3-d]pyrimidin-2-amine] | 7.35 | 7.22
OCCCn1c2cnccc2c2cnc(Nc3ccc(N4CCNCC4)nn3)nc21 [Example 352] | 6.84 | 7.28
c1cc2c3cnc(Nc4ccc(N5CCNCC5)cc4)nc3n(C3CCCC3)c2cn1 [Example 3, (9-Cyclopentyl-9H-pyrido[4′,3′:4,5]pyrrolo[2,3-d]pyrimidin-2-yl)-(4-piperazin-1-yl-phenyl)-amine] | 9.35 | 8.54
CCC(CC)n1c2cnccc2c2cnc(Nc3ccc(N4CCNCC4)cn3)nc21 [Example 161, 9-(1-Ethylpropyl)-N-(5-(1-piperazinyl)-2-pyridinyl)-9H-pyrido[4′,3′:4,5]pyrrolo[2,3-d]pyrimidin-2-amine] | 8.44 | 7.80
Oc1cc(-c2ccc(Nc3ncc4c5ccncc5n(C5CCCC5)c4n3)nn2)ccn1 [Example 264, 4-(6-((9-cyclopentyl-9H-pyrido[4′,3′:4,5]pyrrolo[2,3-d]pyrimidin-2-yl)amino)-3-pyridazinyl)-2-pyridinol] | 8.03 | 7.78
CN(C)CCNC1CCN(c2ccc(Nc3ncc4c5ccncc5n(C5CCCC5)c4n3)nn2)CC1 [Example 480] | 8.31 | 8.00
CCC(C)(C)n1c2cnccc2c2cnc(Nc3ccc(N4CCNCC4)cn3)nc21 [Example 157, 9-(1,1-dimethylpropyl)-N-(5-(1-piperazinyl)-2-pyridinyl)-9H-pyrido-[4′,3′:4,5]pyrrolo[2,3-d]pyrimidin-2-amine] | 7.52 | 7.60
c1cc2c3cnc(Nc4ccc(N5CCNCC5)cn4)nc3n(C3CCCCCC3)c2cn1 [Example 34, (9-Cycloheptyl-9H-pyrido[4′,3′:4,5]pyrrolo[2,3-d]pyrimidin-2-yl)-(5-piperazin-1-yl-pyridin-2-yl)-amine] | 7.96 | 7.68
OC[C@H](O)CNC1CCN(c2ccc(Nc3ncc4c5ccncc5n(C5CCCC5)c4n3)nn2)CC1 [Example 446] | 8.89 | 8.32
CC[C@@H](C)n1c2cnccc2c2cnc(Nc3ccc(N4CCC(N(C)C)CC4)nn3)nc21 [Example 316] | 7.44 | 7.23
NC1CCN(c2ccc(Nc3ncc4c5ccncc5n(C5CCCC5)c4n3)nc2)CC1 [Example 11] | 8.51 | 8.00
OCCCNc1ccc(Nc2ncc3c4ccncc4n(C4CCCC4)c3n2)nn1 [Example 297] | 8.85 | 7.89
COCCn1c2cnccc2c2cnc(Nc3ccc(N4CCC(N(C)C)CC4)cn3)nc21 [Example 314] | 6.42 | 5.82
Cc1cc(N2CCNCC2)cnc1Nc1ncc2c3ccncc3n(C3CCCC3)c2n1 [Example 51, 9-cyclopentyl-N-(3-methyl-5-(1-piperazinyl)-2-pyridinyl)-9H-pyrido[4′,3′:4,5]pyrrolo[2,3-d]pyrimidin-2-amine] | 6.90 | 6.39
C[C@@H](O)CNc1ccc(Nc2ncc3c4ccncc4n(C4CCCC4)c3n2)nn1 [Example 293] | 8.34 | 7.80
COc1nccc2c3cnc(Nc4ccc(N5CCNCC5)cn4)nc3n(C3CCCC3)c12 [Example 52, 9-cyclopentyl-8-(methyloxy)-N-(5-(1-piperazinyl)-2-pyridinyl)-9H-pyrido[4′,3′:4,5]-pyrrolo[2,3-d]pyrimidin-2-amine] | 7.92 | 7.66
C[C@H]1CN(c2ccc(Nc3ncc4c5ccncc5n(CCCO)c4n3)nc2)CCN1 [Example 351] | 7.10 | 6.75
O[C@H]1CCN(c2ccc(Nc3ncc4c5ccnc(F)c5n(C5CCCC5)c4n3)nn2)C1 [Example 311] | 8.07 | 7.62
COc1cc2c3cnc(Nc4ccc(N5CCNCC5)cn4)nc3n(C3CCCC3)c2cn1 [Example 42, (9-Cyclopentyl-6-methoxy-9H-pyrido[4′,3′:4,5]pyrrolo[2,3-d]pyrimidin-2-yl)-(5-piperazin-1-yl-pyridin-2-yl)-amine] | 6.63 | 6.30
C1=CCN(c2ccc(Nc3ncc4c5ccncc5n(C5CCCC5)c4n3)nn2)CC1 [Example 254, 9-Cyclopentyl-N-(6-(3,6-dihydro-1(2 H)-pyridinyl)-3-pyridazinyl)-9H-pyrido[4′,3′:4,5]pyrrolo[2,3-d]pyrimidin-2-amine] | 7.66 | 7.40
c1ccc2c(c1)c1cnc(Nc3ccc(N4CCNCC4)cc3)nc1n2C1CCCCC1 [Example 21, (9-Cyclohexyl-9H-pyrimido[4,5-b]indol-2-yl)-(4-piperazin-1-yl-phenyl)-amine] | 9.00 | 9.39

Structure (SMILES) | pIC50 (Cdk4/CyclinD1) | pIC50 (Cdk6/CyclinD3)
Oc1ccc2c3cnc(Nc4ccc(N5CCNCC5)cn4)nc3n(C3CCCC3)c2n1 [Example 183, 9-Cyclopentyl-2-((5-(1-piperazinyl)-2-pyridinyl)amino)-9H-pyrido[3′,2′:4,5]pyrrolo[2,3-d]pyrimidin-7-ol] | 6.85 | 6.98
Fc1nccc2c3cnc(Nc4ccc(CN5CCNCC5)cn4)nc3n(C3CCCC3)c12 [Example 213, 9-cyclopentyl-8-fluoro-N-(5-(1-piperazinylmethyl)-2-pyridinyl)-9H-pyrido[4′,3′:4,5]pyrrolo[2,3-d]pyrimidin-2-amine] | 6.69 | 7.28
C[C@H](C1CCCCC1)n1c2cnccc2c2cnc(Nc3ccc(N4CCNCC4)cn3)nc21 [Example 28, (R)-[9-(1-Cyclohexyl-ethyl)-9H-pyrido[4′,3′:4,5]pyrrolo[2,3-d]pyrimidin-2-yl]-(5-piperazin-1-yl-pyridin-2-yl)-amine] | 7.24 | 7.21
O[C@H]1CCN(Cc2csc(Nc3ncc4c5ccnc(F)c5n(C5CCCC5)c4n3)n2)C1 [Example 181, (3S)-1-((2-((9-Cyclopentyl-8-fluoro-9H-pyrido[4′,3′:4,5]pyrrolo[2,3-d]pyrimidin-2-yl)amino)-1,3-thiazol-4-yl)methyl)-3-pyrrolidinol] | 7.82 | 7.59
c1cc2c3cnc(Nc4ccc(N5CCNCC5)cn4)nc3n(C3CCCC3)c2nn1 [Example 200, 9-Cyclopentyl-N-(5-(1-piperazinyl)-2-pyridinyl)-9H-pyrimido[5′,4′:4,5]pyrrolo[2,3-c]pyridazin-7-amine] | 7.44 | 7.89
C[C@H]1CN(c2ccc(Nc3ncc4c5ccncc5n(C5CCC5)c4n3)nc2)CCN1 [Example 344] | 7.80 | 8.00
NC1CCN(c2ccc(Nc3ncc4c5ccncc5n(C5CCCC5)c4n3)nn2)CC1 [Example 114] | 8.80 | 8.00
CN(C)CCCN(C)c1ccc(Nc2ncc3c4ccncc4n(C4CCCC4)c3n2)nn1 [Example 290] | 7.46 | 7.07
c1ccc(-n2c3cnccc3c3cnc(Nc4ccc(N5CCNCC5)cn4)nc32)cc1 [Example 14, 9-Phenyl-N-(5-(1-piperazinyl)-2-pyridinyl)-9H-pyrido[4′,3′:4,5]pyrrolo[2,3-d]pyrimidin-2-amine] | 8.66 | 8.10
CC[C@@H](C)n1c2cnccc2c2cnc(Nc3ccc(N4CC[C@@H](O)C4)cn3)nc21 [Example 322] | 7.82 | 7.30
FCCNC1CCN(c2ccc(Nc3ncc4c5ccncc5n(C5CCCC5)c4n3)nc2)CC1 [Example 467] | 8.14 | 7.68
COc1cc2c3cnc(Nc4ccc(N5CCNCC5)cn4)nc3n(C3CCCC3)c2nn1 [Example 202, 9-cyclopentyl-3-methoxy-N-(5-(1-piperazinyl)-2-pyridinyl)-9H-pyrimido[5′,4′:4,5]pyrrolo[2,3-c]pyridazin-7-amine] | 6.85 | 6.28
O=C(c1ccc(Nc2ncc3c4ccncc4n(C4CCCC4)c3n2)nc1)N1CCNCC1 [Example 221, 9-cyclopentyl-N-(5-(1-piperazinylcarbonyl)-2-pyridinyl)-9H-pyrido[4′,3′:4,5]pyrrolo[2,3-d]pyrimidin-2-amine] | 8.85 | 8.10
FC(F)(F)CNC1CCN(c2ccc(Nc3ncc4c5ccncc5n(C5CCCC5)c4n3)nn2)CC1 [Example 456] | 6.96 | 6.42
c1cc2c3cnc(Nc4ccc(C5CCNCC5)cn4)nc3n(C3CCCC3)c2cn1 [Example 257, 9-cyclopentyl-N-(5-(4-piperidinyl)-2-pyridinyl)-9H-pyrido[4′,3′:4,5]pyrrolo[2,3-d]pyrimidin-2-amine] | 8.15 | 8.28
Clc1nccc2c3cnc(Nc4ccc(N5CCNCC5)cn4)nc3n(C3CCCC3)c12 [Example 152, 8-Chloro-9-cyclopentyl-N-(5-(1-piperazinyl)-2-pyridinyl)-9H-pyrido[4′,3′:4,5]pyrrolo[2,3-d]pyrimidin-2-amine] | 8.70 | 8.37
CN(C)C1CCN(c2ccc(Nc3ncc4c5ccncc5n(C5CCC5)c4n3)nn2)CC1 [Example 347] | 7.57 | 7.57
C[C@H]1CN(c2ccc(Nc3ncc4c5ccncc5n(C5CCCC5)c4n3)nn2)CCN1 [Example 9] | 8.42 | 7.71
C1=C(c2ccc(Nc3ncc4c5ccncc5n(C5CCCC5)c4n3)nc2)CCNC1 [Example 256, 9-Cyclopentyl-N-(1′,2′,3′,6′-tetrahydro-3,4′-bipyridin-6-yl)-9H-pyrido[4′,3′:4,5]pyrrolo[2,3-d]pyrimidin-2-amine] | 8.89 | 8.15
OCC(CO)NC1CCN(c2ccc(Nc3ncc4c5ccncc5n(C5CCCC5)c4n3)nn2)CC1 [Example 445] | 8.66 | 8.20
O=S1(=O)CCC(Nc2ccc(Nc3ncc4c5ccncc5n(C5CCCC5)c4n3)nc2)C1 (centres unmarked) [Example 65] | 8.02 | 7.62
